Test results from PubChem BioAssay AID248 (DTP/NCI, 2004).
“And” between values parts separate entries of the source, which are not always exact repeats. Equal values may be shown once. Toxic doses and inconclusive results are not listed.

System: L1210 leukemia ip in BDF1 mice, survival T/C
Experiment: NCI In Vivo Anticancer Drug Screen. Data for tumor model L1210 Leukemia (intraperitoneal) in B6D2F1 (BDF1) mice
Details: endpoint: mean survival time, higher = longer survival
How it was run: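 Tumor was transplanted into mice, which were then dosed with test compound or vehicle alone. Survival was recorded for each group, and the treated figure was expressed relative to the control figure.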

[1] = dose: 100.0 mg/kg/injection, schedule: Q04DX003 (ip), vehicle: Klucel (hydroxypropylcellulose) (HPC)
[2] = dose: 200.0 mg/kg/injection, schedule: Q04DX003 (ip), vehicle: Klucel (hydroxypropylcellulose) (HPC)
[3] = dose: 400.0 mg/kg/injection, schedule: Q04DX003 (ip), vehicle: Klucel (hydroxypropylcellulose) (HPC)
[4] = dose: 100.0 mg/kg/injection, schedule: Q01DX001 (ip), vehicle: Klucel (hydroxypropylcellulose) (HPC)
[5] = dose: 100.0 mg/kg/injection, schedule: Q01DX009 (ip), vehicle: Klucel (hydroxypropylcellulose) (HPC)
[6] = dose: 200.0 mg/kg/injection, schedule: Q01DX009 (ip), vehicle: Klucel (hydroxypropylcellulose) (HPC)
[7] = dose: 400.0 mg/kg/injection, schedule: Q01DX009 (ip), vehicle: Klucel (hydroxypropylcellulose) (HPC)
[8] = dose: 50.0 mg/kg/injection, schedule: Q01DX009 (ip), vehicle: saline with Tween-80
[9] = dose: 100.0 mg/kg/injection, schedule: Q01DX009 (ip), vehicle: saline with Tween-80
[10] = dose: 200.0 mg/kg/injection, schedule: Q01DX009 (ip), vehicle: saline with Tween-80
[11] = dose: 100.0 mg/kg/injection, schedule: Q01DX001 (ip), vehicle: carboxymethylcellulose (CMC)
[12] = dose: 50.0 mg/kg/injection, schedule: Q01DX001 (ip), vehicle: carboxymethylcellulose (CMC)
[13] = dose: 100.0 mg/kg/injection, schedule: Q04DX002 (ip), vehicle: Klucel (hydroxypropylcellulose) (HPC)
[14] = dose: 200.0 mg/kg/injection, schedule: Q01DX001 (ip), vehicle: carboxymethylcellulose (CMC)
[15] = dose: 200.0 mg/kg/injection, schedule: Q04DX002 (ip), vehicle: Klucel (hydroxypropylcellulose) (HPC)
[16] = dose: 400.0 mg/kg/injection, schedule: Q01DX001 (ip), vehicle: carboxymethylcellulose (CMC)
[17] = dose: 400.0 mg/kg/injection, schedule: Q04DX002 (ip), vehicle: Klucel (hydroxypropylcellulose) (HPC)

[N-]=[N+]=Nc1cnn(-c2ccccc2)c(=O)c1Cl
T/C (dose: 18.75 mg/kg/injection, schedule: Q01DX009 (ip), vehicle: saline with Tween-80): 105 % of control | T/C (dose: 37.5 mg/kg/injection, schedule: Q01DX009 (ip), vehicle: saline with Tween-80): 92 % of control | T/C (dose: 75.0 mg/kg/injection, schedule: Q01DX009 (ip), vehicle: saline with Tween-80): 101 % of control

CC(C)(C)COC(=O)CCN1CC1
T/C (dose: 20.0 mg/kg/injection, schedule: Q01DX009 (ip), vehicle: Klucel (hydroxypropylcellulose) (HPC)): 119 % of control | T/C (dose: 20.0 mg/kg/injection, schedule: Q04DX003 (ip), vehicle: Klucel (hydroxypropylcellulose) (HPC)): 103 % of control | T/C (dose: 40.0 mg/kg/injection, schedule: Q01DX009 (ip), vehicle: Klucel (hydroxypropylcellulose) (HPC)): 97 % of control | T/C (dose: 40.0 mg/kg/injection, schedule: Q04DX003 (ip), vehicle: Klucel (hydroxypropylcellulose) (HPC)): 114 % of control | T/C (dose: 80.0 mg/kg/injection, schedule: Q04DX003 (ip), vehicle: Klucel (hydroxypropylcellulose) (HPC)): 101 % of control | T/C [1]: 110 % of control

Cc1ccc(/C(=C/c2ccc([N+](=O)[O-])cc2)C(=O)O)cc1
T/C [1]: 102 % of control | T/C [2]: 98 % of control | T/C [3]: 95 % of control

CCN(C(=S)c1ccc(OC)cc1)c1cccc(C)c1
T/C (dose: 75.0 mg/kg/injection, schedule: Q04DX003 (ip), vehicle: Klucel (hydroxypropylcellulose) (HPC)): 94 % of control | T/C [4]: 103 % of control | T/C (dose: 150.0 mg/kg/injection, schedule: Q04DX003 (ip), vehicle: Klucel (hydroxypropylcellulose) (HPC)): 111 % of control | T/C (dose: 200.0 mg/kg/injection, schedule: Q01DX001 (ip), vehicle: Klucel (hydroxypropylcellulose) (HPC)): 97 % of control | T/C (dose: 300.0 mg/kg/injection, schedule: Q04DX003 (ip), vehicle: Klucel (hydroxypropylcellulose) (HPC)): 100 % of control | T/C (dose: 400.0 mg/kg/injection, schedule: Q01DX001 (ip), vehicle: Klucel (hydroxypropylcellulose) (HPC)): 96 % of control

Cc1cc(C)c(S(=O)(=O)Nc2cc(C)ccc2C)c(C)c1
T/C [5]: 100 % of control | T/C [6]: 96 % of control | T/C [7]: 100 % of control

CC1=C(OCC(C)C)CCCC1=O
T/C [8]: 88 % of control | T/C [9]: 96 % of control | T/C [10]: 96 % of control

CCC(=O)C(CC(C)[N+](C)(C)C)(c1ccccc1)c1ccccc1 (stereo not drawn)
T/C [11]: 92 % of control

[Ni+2].[SH2+]C([SH2+])=Nc1ccccc1.[SH2+]C([SH2+])=Nc1ccccc1.c1ccc(C[P+](c2ccccc2)(c2ccccc2)c2ccccc2)cc1
T/C (dose: 6.0 mg/kg/injection, schedule: Q01DX009 (ip), vehicle: saline): 94 % of control

O=C(Nc1ccccc1)NS(=O)(=O)CS(=O)(=O)NC(=O)Nc1ccccc1
T/C (dose: 100.0 mg/kg/injection, schedule: Q01DX001 (ip), vehicle: saline): 104 % of control | T/C (dose: 200.0 mg/kg/injection, schedule: Q01DX001 (ip), vehicle: saline): 102 % of control | T/C (dose: 400.0 mg/kg/injection, schedule: Q01DX001 (ip), vehicle: saline): 109 % of control

COC(=O)c1c(C(N)=O)n[nH]c1C1OC(COCc2ccccc2)C(OCc2ccccc2)C1OCc1ccccc1 (stereo not drawn)
T/C (dose: 100.0 mg/kg/injection, schedule: Q01DX005 (ip), vehicle: saline with Tween-80): 102 % of control | T/C (dose: 200.0 mg/kg/injection, schedule: Q01DX005 (ip), vehicle: saline with Tween-80): 100 % of control

CCOC1=C(NC(C)=O)C(=O)c2ccccc2C1=O
T/C (dose: 75.0 mg/kg/injection, schedule: Q01DX001 (ip), vehicle: other): 100 % of control

O=C(NCCCNC(=O)Nc1ccc(C2=NCCN2)cc1)Nc1ccc(C2=NCCN2)cc1
T/C (dose: 0.5 mg/kg/injection, schedule: Q01DX Z (ip), vehicle: carboxymethylcellulose (CMC)): 105 % of control | T/C (dose: 1.0 mg/kg/injection, schedule: Q01DX Z (ip), vehicle: carboxymethylcellulose (CMC)): 105 % of control | T/C (dose: 8.0 mg/kg/injection, schedule: Q01DX Z (ip), vehicle: water): 122 % of control | T/C (dose: 12.0 mg/kg/injection, schedule: Q01DX Z (ip), vehicle: carboxymethylcellulose (CMC)): 225 % of control | T/C (dose: 16.0 mg/kg/injection, schedule: Q01DX Z (ip), vehicle: carboxymethylcellulose (CMC)): 223 % of control | T/C (dose: 16.0 mg/kg/injection, schedule: Q01DX Z (ip), vehicle: water): 210 % of control | T/C (dose: 24.0 mg/kg/injection, schedule: Q01DX Z (ip), vehicle: carboxymethylcellulose (CMC)): 223 % of control | T/C (dose: 31.0 mg/kg/injection, schedule: Q01DX Z (ip), vehicle: carboxymethylcellulose (CMC)): 177 % of control

CN(C(=O)c1ccc([N+](=O)[O-])cc1)c1ccccc1
T/C [12]: 100 % of control | T/C [11]: 118 % of control | T/C [5]: 103 % of control | T/C [13]: 93 % of control | T/C [14]: 108 % of control | T/C [6]: 96 % of control | T/C [15]: 90 % of control | T/C [16]: 96 % of control | T/C [7]: 100 % of control | T/C [17]: 123 % of control

Nc1c([N+](=O)[O-])cc(Cl)c(Cl)c1F
T/C [13]: 101 % of control | T/C [15]: 96 % of control | T/C [17]: 96 % of control

O=P(O)(Nc1ccccc1)Nc1ccccc1
T/C (dose: 100.0 mg/kg/injection, schedule: Q04DX002 (ip), vehicle: saline with Tween-80): 113 % of control | T/C (dose: 200.0 mg/kg/injection, schedule: Q04DX002 (ip), vehicle: saline with Tween-80): 103 % of control | T/C (dose: 400.0 mg/kg/injection, schedule: Q04DX002 (ip), vehicle: saline with Tween-80): 113 % of control

OCCC1=CCCCC1
T/C (dose: 100.0 mg/kg/injection, schedule: Q04DX003 (ip), vehicle: saline with Tween-80): 97 % of control | T/C (dose: 200.0 mg/kg/injection, schedule: Q04DX003 (ip), vehicle: saline with Tween-80): 95 % of control | T/C (dose: 400.0 mg/kg/injection, schedule: Q04DX003 (ip), vehicle: saline with Tween-80): 93 % of control

CC(=O)Nc1nnc(SC(C)=O)s1
T/C [5]: 95 % of control and 90 % of control | T/C [6]: 95 % of control | T/C [7]: 93 % of control and 94 % of control

COc1c2c(c(C(=O)O)c3ccncc13)CC(C)(C)C2
T/C [8]: 102 % of control | T/C [9]: 98 % of control | T/C [10]: 101 % of control

CCOC(=O)c1cnc(SC)nc1N/N=C/c1ccccc1
T/C [1]: 100 % of control | T/C [2]: 101 % of control | T/C [3]: 103 % of control

CCCCN1C(=O)C(c2ccccc2)C2(CCN(C)CC2)C1=O (stereo not drawn)
T/C (dose: 25.0 mg/kg/injection, schedule: Q01DX001 (ip), vehicle: Klucel (hydroxypropylcellulose) (HPC)): 93 % of control | T/C (dose: 50.0 mg/kg/injection, schedule: Q01DX001 (ip), vehicle: Klucel (hydroxypropylcellulose) (HPC)): 91 % of control | T/C [4]: 97 % of control and 98 % of control

O=[N+]([O-])c1ccc(S(=O)(=O)C2CCCCC2Cl)c([N+](=O)[O-])c1 (stereo not drawn)
T/C [12]: 95 % of control | T/C [11]: 111 % of control | T/C [14]: 106 % of control | T/C [16]: 101 % of control

Cc1cc2oc(/C=C/C(=O)c3ccc([N+](=O)[O-])cc3)c(C)c2cc1C
T/C [1]: 97 % of control | T/C [2]: 90 % of control | T/C [3]: 100 % of control

C=C(Cl)COC1CCS(=O)(=O)C1 (stereo not drawn)
T/C (dose: 6.25 mg/kg/injection, schedule: Q01DX009 (ip), vehicle: saline with Tween-80): 94 % of control and 101 % of control | T/C (dose: 12.5 mg/kg/injection, schedule: Q01DX009 (ip), vehicle: saline with Tween-80): 95 % of control and 97 % of control | T/C (dose: 25.0 mg/kg/injection, schedule: Q01DX009 (ip), vehicle: saline with Tween-80): 100 % of control and 122 % of control | T/C [8]: 97 % of control

O=c1c2ccccc2nc2n1CCC2
T/C (dose: 25.0 mg/kg/injection, schedule: Q01DX001 (ip), vehicle: saline): 102 % of control | T/C (dose: 50.0 mg/kg/injection, schedule: Q01DX001 (ip), vehicle: saline): 93 % of control | T/C (dose: 75.0 mg/kg/injection, schedule: Q01DX001 (ip), vehicle: saline): 104 % of control

Nc1nc(=S)c2nnn(C3OC(CO)C(O)C3O)c2[nH]1 (stereo not drawn)
T/C (dose: 100.0 mg/kg/injection, schedule: Q01DX001 (ip), vehicle: saline with Tween-80): 104 % of control | T/C (dose: 200.0 mg/kg/injection, schedule: Q01DX001 (ip), vehicle: saline with Tween-80): 104 % of control | T/C (dose: 400.0 mg/kg/injection, schedule: Q01DX001 (ip), vehicle: saline with Tween-80): 90 % of control
